Laboratory results reported in PubChem BioAssay AID1745844 (Carcinogenic Potency Database (CPDB), 2022).
Several values for one entry are separate records, joined by “and”; a condition that tells them apart may be missing. Equal values may be shown once. Activity calls are given as the source filed them. The rule behind the calls is not given here.

Tested on: rodent lifetime carcinogenesis bioassay, tumor incidence TD50
Experiment: chronic cancer bioassays in animals – CPDB, compiled studies (AID 1745844)
[1] = mouse, strain A/He, females, in feed, site: liver, lesion: hepatoma, dosed 104 weeks, study length 104 weeks
[2] = mouse, strain A/He, females, in feed, site: lung, lesion: one or several types, types not named, dosed 104 weeks, study length 104 weeks
[3] = mouse, strain C3HfB, females, in feed, site: lung, lesion: one or several types, types not named, dosed 104 weeks, study length 104 weeks
[4] = mouse, strain CFLP, females, in feed, site: liver, lesion: hepatocellular tumor, dosed 78 weeks, study length 78 weeks

C#C[C@]1(O)CC[C@H]2[C@@H]3CCc4cc(OC)ccc4[C@H]3CC[C@@]21C (tested in a mixture with another compound)
TD50 [1]: 25.2 mg/kg/day (inactive) | carcinogen call [1]: negative (inactive) | TD50 [2]: 4.62 mg/kg/day (inactive) and 4.31 mg/kg/day (inactive) | carcinogen call [2]: negative (inactive) | TD50 (mouse, strain BALB/c, females, in feed, site: several sites, sites named in the paper, lesion: squamous-cell carcinoma, dosed 86 weeks, study length 86 weeks): 2 mg/kg/day | carcinogen call (mouse, strain BALB/cHe, females, in feed, site: lung, lesion: one or several types, types not named, dosed 104 weeks, study length 104 weeks): negative (inactive) | carcinogen call (mouse, strain C3H/He (MTV+), females, in feed, site: liver, lesion: hepatoma, dosed 104 weeks, study length 104 weeks): negative (inactive) | TD50 (mouse, strain C3HfB, females, in feed, site: all sites, lesion: fibrosarcoma, dosed 104 weeks, study length 104 weeks): 3.93 mg/kg/day (inactive) | carcinogen call (mouse, strain C3HfB, females, in feed, site: liver, lesion: hepatoma, dosed 104 weeks, study length 104 weeks): negative (inactive) | TD50 [3]: 27.6 mg/kg/day (inactive) | carcinogen call [3]: negative (inactive) | TD50 (mouse, strain C57BL/He, females, in feed, site: hypophysis, lesion: chromophobe adenoma, dosed 104 weeks, study length 104 weeks): 1.75 mg/kg/day and 1.82 mg/kg/day | carcinogen call (mouse, strain C57BL/He, females, in feed, site: liver, lesion: hepatoma, dosed 104 weeks, study length 104 weeks): negative (inactive) | TD50 (mouse, strain C57BL/He, females, in feed, site: lung, lesion: one or several types, types not named, dosed 104 weeks, study length 104 weeks): 20.7 mg/kg/day (inactive) | carcinogen call (mouse, strain C57L/He x 129/Rr x C3HeB/De x SWR/Ly, females, by gavage, site: any site (literature study), lesion: several types, types named in the paper, dosed 69 weeks, study length 69 weeks): negative (inactive) | TD50 (mouse, strain C57L/He x 129/Rr x C3HeB/De x SWR/Ly, females, by gavage, site: any site (literature study), lesion: several types, types named in the paper, dosed 69 weeks, study length 82 weeks): 0.332 mg/kg/day (inactive) | carcinogen call (mouse, strain C57L/He x 129/Rr x C3HeB/De x SWR/Ly, females, by gavage, site: lung, lesion: one or several types, types not named, dosed 69 weeks, study length 69 weeks): negative (inactive) | TD50 (mouse, strain C57L, females, by gavage, site: pituitary gland, lesion: one or several types, types not named, dosed 89 weeks, study length 89 weeks): 0.151 mg/kg/day | TD50 [4]: 143 mg/kg/day (inactive) | carcinogen call [4]: negative (inactive) | carcinogen call (mouse, strain CFLP, males, in feed, site: liver, lesion: hepatocellular tumor, dosed 78 weeks, study length 78 weeks): negative (inactive) | TD50 (mouse, strain Swiss Webster, females, by gavage, site: liver, lesion: hepatocellular tumor, dosed 65 weeks, study length 80 weeks): 20.8 mg/kg/day (inactive)

CN(C)C(=O)Nc1cccc(C(F)(F)F)c1
TD50 (mouse, strain B6C3F1, females, in feed, site: any site (literature study), lesion: several types, types named in the paper, dosed 103 weeks, study length 103 weeks): 369 mg/kg/day (inactive) | TD50 (mouse, strain B6C3F1, females, in feed, site: liver, lesion: hepatocellular adenoma + hepatocellular carcinoma + neoplastic nodule, dosed 103 weeks, study length 103 weeks): 1230 mg/kg/day | TD50 (mouse, strain B6C3F1, males, in feed, site: any site (literature study), lesion: several types, types named in the paper, dosed 103 weeks, study length 103 weeks): 265 mg/kg/day | TD50 (mouse, strain B6C3F1, males, in feed, site: liver, lesion: hepatocellular adenoma + hepatocellular carcinoma + neoplastic nodule, dosed 103 weeks, study length 103 weeks): 229 mg/kg/day | TD50 (mouse, strain B6C3F1, males, in feed, site: liver, lesion: hepatocellular adenoma + hepatocellular carcinoma, dosed 103 weeks, study length 103 weeks): 229 mg/kg/day | TD50 (mouse, strain B6C3F1, males, in feed, site: lung, lesion: alveolar/bronchiolar adenoma + alveolar/bronchiolar carcinoma, dosed 103 weeks, study length 103 weeks): 1420 mg/kg/day | carcinogen call (rat, strain Fischer 344, females, in feed, site: any site (literature study), lesion: several types, types named in the paper, dosed 103 weeks, study length 104 weeks): negative (inactive) | TD50 (rat, strain Fischer 344, males, in feed, site: liver, lesion: hepatocellular adenoma + hepatocellular carcinoma + neoplastic nodule, dosed 103 weeks, study length 104 weeks): 55.4 mg/kg/day | TD50 (rat, strain Fischer 344, males, in feed, site: liver, lesion: neoplastic nodule, dosed 103 weeks, study length 104 weeks): 55.4 mg/kg/day (inactive)

ClCc1ccccn1
TD50 (mouse, strain B6C3F1, females, by gavage, site: any site (literature study), lesion: several types, types named in the paper, dosed 99 weeks, study length 104 weeks): 9790 mg/kg/day (inactive) | TD50 (mouse, strain B6C3F1, females, by gavage, site: lung, lesion: alveolar/bronchiolar adenoma + alveolar/bronchiolar carcinoma, dosed 99 weeks, study length 104 weeks): 2170 mg/kg/day | carcinogen call (mouse, strain B6C3F1, males, by gavage, site: any site (literature study), lesion: several types, types named in the paper, dosed 99 weeks, study length 104 weeks): negative (inactive) | TD50 (mouse, strain B6C3F1, males, by gavage, site: lung, lesion: alveolar/bronchiolar adenoma + alveolar/bronchiolar carcinoma, dosed 99 weeks, study length 104 weeks): 2940 mg/kg/day | TD50 (rat, strain Fischer 344, females, by gavage, site: any site (literature study), lesion: several types, types named in the paper, dosed 99 weeks, study length 105 weeks): 114 mg/kg/day (inactive) | TD50 (rat, strain Fischer 344, males, by gavage, site: any site (literature study), lesion: several types, types named in the paper, dosed 99 weeks, study length 105 weeks): 671 mg/kg/day | TD50 (rat, strain Fischer 344, males, by gavage, site: subcutaneous tissue, lesion: fibroma, dosed 99 weeks, study length 105 weeks): 515 mg/kg/day (inactive)
